# Reference: patent US6342499B1, “Parasitic and saprophagous mite control in beneficial insects” (BASF Aktiengesellschaft, priority 1998, dated 2002)
# How the values were obtained:
# Assay type in all cases: in vivo
# [1] = test system: honeybees (Apis mellifera); experiment: Example 4: METI, topical treatment of honeybees from hives 70% infested with Varroa; bee mortality; settings: 5 days at 31° C.
# Procedure: (§1) Honeybees (Apis mellifera) taken from hives which are 70% infested with Varroa jacobsoni are chilled to immobilize the bees. A 1 μl droplet of an acetone solution of test compound is applied to the dorsal abdomen of each bee; control bees receive a 1 μl droplet of acetone. A total of 50-52 bees are treated for each dose rate tested. The treated bees are placed in an incubator at 31° C. in the dark and fed 50% sugar water ad libitum for 5 days. After incubation, the bees are examined for mortality and mite infestation.
# Varroa jacobsoni = experiment: Example 4: METI, topical treatment of honeybees from hives 70% infested with Varroa; parasite mortality; settings: 5 days at 31° C.
# Procedure: as §1
# [2] = test system: Acarapis woodi (trachea mites); experiment: Example 3: tracheal mites walked across glass slides dipped in test compound; time to 100% mortality; settings: slides dipped in 500 ppm acetone solution
# Procedure: In this evaluation, honeybees (Apis mellifera) which are infested with Acarapis woodi (trachea mites) are dissected to remove the infested tracheae. Glass microscope slides are dipped into acetone solutions of test compound (500 ppm) and the acetone is allowed to evaporate. Infested tracheae are placed directly on the treated slides. The mites are removed from the tracheae by dissection and forced to walk across the treated area. The elapsed time is recorded for 100% mortality, i.e. no movement is observed upon agitation.
# Drosophila melanogaster = experiment: Example 5: treated paper strips in mite-infested Drosophila culture vials; fly mortality; settings: treated paper strip; for % Mortality Drosophila Adults: after 5 days at 25° C.; for % Mortality Drosophila larvae: after 15 days, percent of expected progeny vs untreated control
# Procedure: (§2) Paper towel strips (2×7 cm) are dipped into an acetone solution of test compound and allowed to dry. Control paper towel strips are dipped into acetone and allowed to dry. Treated strips are placed in 2.5×9.5 cm culture vials containing a standard cornmeal-molasses-agar diet, such that the strips are inserted about 1 cm into the diet. Five pairs of heavily infested, newly emerged Drosophila melanogaster are placed into the test vials and incubated at 25° C. After 5 days, the adult flies are evaluated for % mortality and are removed rom each test vial. After 15 days, the mites [Proctoloaelaps sp.(Proct) and Histiostoma sp.(Hist)] and insect larva/pupa are evaluated for mortality and recorded as a percent of expected progeny as determined by the untreated control. At 14 days approximately 200-500 Histiostoma sp. mites (Hist) and approximately 50 Proctolaelaps sp. mites (Proct) are present in the untreated controls.
# [3] = test system: Proctolaelaps sp. mites (Proct); experiment: Example 5: treated paper strips in mite-infested Drosophila culture vials; Proctolaelaps mortality; settings: treated paper strip, after 15 days, percent of expected progeny vs untreated control
# Procedure: as §2
# [4] = test system: Histiostoma sp. mites (Hist); experiment: Example 5: treated paper strips in mite-infested Drosophila culture vials; Histiostoma mortality; settings: treated paper strip, after 15 days, percent of expected progeny vs untreated control
# Procedure: as §2
smiles,measurement,setting,value
"CCCCCCCCCCCCC1=C(OC(C)=O)C(=O)c2ccccc2C1=O [Acequinocyl, acequinocyl]",% Mortality Bees,[1]; dose 0.1 μg/bee,15%
same,% Mortality Bees,[1]; dose 1.0 μg/bee,10%
same,% Mortality Bees,[1]; dose 10.0 μg/bee,42%
same,% Mortality Parasites,Varroa jacobsoni; dose 0.1 μg/bee,12%
same,% Mortality Parasites,Varroa jacobsoni; dose 1.0 μg/bee,0%
same,% Mortality Parasites,Varroa jacobsoni; dose 10.0 μg/bee,83%
Fc1ccc(Oc2cc(Oc3ccc(Cl)c(C(F)(F)F)c3)ncn2)cc1C(F)(F)F [C],Time required in minutes to achieve 100% mortality,[2]; Rep. 1,16 min
same,Time required in minutes to achieve 100% mortality,[2]; Rep. 2,16 min
same,Time required in minutes to achieve 100% mortality,[2]; Rep. 3,15 min
same,% Mortality Drosophila Adults,Drosophila melanogaster; dose 10 ppm,15%
same,% Mortality Drosophila larvae,Drosophila melanogaster; dose 10 ppm,0%
same,% Mortality Drosophila Adults,Drosophila melanogaster; dose 50 ppm,20%
same,% Mortality Drosophila larvae,Drosophila melanogaster; dose 50 ppm,53%
same,% Mortality Drosophila Adults,Drosophila melanogaster; dose 100 ppm,100%
same,% Mortality Drosophila larvae,Drosophila melanogaster; dose 100 ppm,73%
same,% Mortality Mites Proct,[3]; dose 10 ppm,40%
same,% Mortality Mites Proct,[3]; dose 50 ppm,100%
same,% Mortality Mites Proct,[3]; dose 100 ppm,100%
same,% Mortality Mites Hist,[4]; dose 10 ppm,90%
same,% Mortality Mites Hist,[4]; dose 50 ppm,100%
same,% Mortality Mites Hist,[4]; dose 100 ppm,100%
"CC(C)(C)c1ccc(CCOc2ncnc3ccccc23)cc1 [Fenazaquin, fenazaquin]",% Mortality Bees,[1]; dose 0.012 μg/bee,18%
same,% Mortality Bees,[1]; dose 0.12 μg/bee,14%
same,% Mortality Bees,[1]; dose 1.2 μg/bee,18%
same,% Mortality Parasites,Varroa jacobsoni; dose 0.012 μg/bee,19%
same,% Mortality Parasites,Varroa jacobsoni; dose 0.12 μg/bee,27%
same,% Mortality Parasites,Varroa jacobsoni; dose 1.2 μg/bee,87%
"Cc1nn(C)c(Oc2ccccc2)c1C=NOCc1ccc(C(=O)OC(C)(C)C)cc1 [Fenpyroximate, fenpyroximate]",% Mortality Bees,[1]; dose 0.003 μg/bee,13%
same,% Mortality Bees,[1]; dose 0.03 μg/bee,10%
same,% Mortality Bees,[1]; dose 0.3 μg/bee,24%
same,% Mortality Parasites,Varroa jacobsoni; dose 0.003 μg/bee,7%
same,% Mortality Parasites,Varroa jacobsoni; dose 0.03 μg/bee,30%
same,% Mortality Parasites,Varroa jacobsoni; dose 0.3 μg/bee,100%
"CC(C)(C)c1ccc(CSc2cnn(C(C)(C)C)c(=O)c2Cl)cc1 [Pyridaben, pyridaben]",% Mortality Bees,[1]; dose 0.001 μg/bee,12%
same,% Mortality Bees,[1]; dose 0.01 μg/bee,10%
same,% Mortality Bees,[1]; dose 0.1 μg/bee,20%
same,% Mortality Parasites,Varroa jacobsoni; dose 0.001 μg/bee,14%
same,% Mortality Parasites,Varroa jacobsoni; dose 0.01 μg/bee,0%
same,% Mortality Parasites,Varroa jacobsoni; dose 0.1 μg/bee,100%
